# Assay results taken from EP4273147A1, “SUBSTITUTED SPIROLACTAMS, SALTS THEREOF AND THEIR USE AS HERBICIDALLY ACTIVE SUBSTANCES” (Bayer Aktiengesellschaft, priority 2022, dated 2023).
# Key:
# [1] = test system: ABUTH; assay: Herbicidal pre-emergence action (Table A1); type: in vivo, Abutilon theophrasti; details: application rate 1280 g/ha; visual grading after ca. 3 weeks vs untreated controls (100% = plants have died off, 0% = as control plants)
# Method in brief: (§1)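 For this pre-emergence setup, sandy loam pots received seeds of one monocot and one dicot weed species each. The seeds were then covered with soil.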
# [2] = test system: ECHCG; assay: Herbicidal pre-emergence action (Table A2); type: in vivo, Echinochloa crus-galli; details: application rate 320 g/ha; visual grading after ca. 3 weeks
# Method in brief: as §1
# [3] = test system: LOLRI; assay: Herbicidal pre-emergence action (Table A3); type: in vivo, Lolium rigidum; details: application rate 320 g/ha; visual grading after ca. 3 weeks
# Method in brief: as §1
# [4] = test system: MATIN; assay: Herbicidal pre-emergence action (Table A4); type: in vivo, Matricaria inodora; details: application rate 320 g/ha; visual grading after ca. 3 weeks
# Method in brief: as §1
# [5] = test system: SETVI; assay: Herbicidal pre-emergence action (Table A5); type: in vivo, Setaria viridis; details: application rate 320 g/ha; visual grading after ca. 3 weeks
# Method in brief: as §1
# [6] = test system: STEME; assay: Herbicidal pre-emergence action (Table A6); type: in vivo, Stellaria media; details: application rate 320 g/ha; visual grading after ca. 3 weeks
# Method in brief: as §1
# [7] = test system: POAAN; assay: Herbicidal pre-emergence action (Table A7); type: in vivo, Poa annua; details: application rate 320 g/ha; visual grading after ca. 3 weeks
# Method in brief: as §1
# [8] = test system: ALOMY; assay: Herbicidal pre-emergence action (Table A9); type: in vivo, Alopecurus myosuroides; details: application rate 320 g/ha; visual grading after ca. 3 weeks
# Method in brief: as §1
# [9] = test system: KCHSC; assay: Herbicidal pre-emergence action (Table A10); type: in vivo, Kochia scoparia; details: application rate 1280 g/ha; visual grading after ca. 3 weeks
# Method in brief: as §1
# [10] = test system: VERPE; assay: Herbicidal pre-emergence action (Table A11); type: in vivo, Veronica persica; details: application rate 320 g/ha; visual grading after ca. 3 weeks
# Method in brief: as §1
# [11] = test system: ABUTH; assay: Herbicidal post-emergence action (Table B1); type: in vivo, Abutilon theophrasti; details: application rate 1280 g/ha; treated at one-leaf stage; rated visually after about 3 weeks vs untreated controls (100% = plants have died, 0% = like control plants)
# Method in brief: (§2)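 Visual rating against untreated plants (0% = as control, 100% = dead) made roughly 3 weeks after application. Weed species were grown in sandy loam pots under greenhouse conditions and sprayed at the one-leaf stage, 2–3 weeks post-sowing.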
# [12] = test system: ALOMY; assay: Herbicidal post-emergence action (Table B2); type: in vivo, Alopecurus myosuroides; details: application rate 1280 g/ha; rated visually after about 3 weeks
# Method in brief: as §2
# [13] = test system: ECHCG; assay: Herbicidal post-emergence action (Table B3); type: in vivo, Echinochloa crus-galli; details: application rate 320 g/ha; rated visually after about 3 weeks
# Method in brief: as §2
# [14] = test system: MATIN; assay: Herbicidal post-emergence action (Table B6); type: in vivo, Matricaria inodora; details: application rate 320 g/ha; rated visually after about 3 weeks
# Method in brief: as §2
# [15] = test system: POAAN; assay: Herbicidal post-emergence action (Table B7); type: in vivo, Poa annua; details: application rate 320 g/ha
# Method in brief: as §2
# [16] = test system: SETVI; assay: Herbicidal post-emergence action (Table B8); type: in vivo, Setaria viridis; details: application rate 1280 g/ha
# Method in brief: as §2
# [17] = test system: STEME; assay: Herbicidal post-emergence action (Table B9); type: in vivo, Stellaria media; details: application rate 1280 g/ha
# Method in brief: as §2
# [18] = test system: VERPE; assay: Herbicidal post-emergence action (Table B10); type: in vivo, Veronica persica; details: application rate 320 g/ha
# Method in brief: as §2
# [19] = test system: ALOMY; assay: Herbicidal pre-emergence action, section C (Table C2); type: in vivo, Alopecurus myosuroides; details: application rate 320 g/ha; visual grading after ca. 3 weeks
# Description: (§4) Seeds of mono- and dicotyledonous weed plants and crop plants were sown, in plastic or organic planting pots, in sandy loam and covered with soil. The compounds according to the invention, formulated in the form of wettable powders (WP) or as emulsifiable concentrates (EC), were applied to the surface of the covering soil as aqueous suspension or emulsion, with the addition of 0.5% of an additive, at an application rate of 600 1 of water/ha (converted). Following treatment, the pots were placed in a greenhouse and kept under optimum growth conditions for the test plants.
# [20] = test system: ECHCG; assay: Herbicidal pre-emergence action, section C (Table C6); type: in vivo, Echinochloa crus-galli; details: application rate 80 g/ha; visual grading after ca. 3 weeks
# [21] = test system: LOLRI; assay: Herbicidal pre-emergence action, section C (Table C7); type: in vivo, Lolium rigidum; details: application rate 320 g/ha; visual grading after ca. 3 weeks
# [22] = test system: MATIN; assay: Herbicidal pre-emergence action, section C (Table C8); type: in vivo, Matricaria inodora; details: application rate 320 g/ha; visual grading after ca. 3 weeks
# Description: as §4
# [23] = test system: SETVI; assay: Herbicidal pre-emergence action, section C (Table C10); type: in vivo, Setaria viridis; details: application rate 80 g/ha; visual grading after ca. 3 weeks
# Description: as §4
# [24] = test system: VIOTR; assay: Herbicidal pre-emergence action, section C (Table C12); type: in vivo, Viola tricolor; details: application rate 320 g/ha; visual grading after ca. 3 weeks
# [25] = test system: ZEAMX; assay: Pre-emergence effects on crop plants (Table D1); type: in vivo, Zea mays; details: crop plant; application rate 80 g/ha; visual grading after ca. 3 weeks
# [26] = test system: GLXMA; assay: Pre-emergence effects on crop plants (Table D4); type: in vivo, Glycine max; details: crop plant; application rate 80 g/ha; visual grading after ca. 3 weeks
# [27] = test system: BRSNW; assay: Pre-emergence effects on crop plants (Table D5); type: in vivo, Brassica napus; details: crop plant; application rate 80 g/ha; visual grading after ca. 3 weeks
# [28] = test system: ALOMY; assay: Herbicidal post-emergence action, section E (Table E2); type: in vivo, Alopecurus myosuroides; details: application rate 320 g/ha; assessed visually after ca. 3 weeks
# Description: (§3) 2 to 3 weeks after sowing, the test plants were sprayed in the single-leaf stage.
# [29] = test system: ECHCG; assay: Herbicidal post-emergence action, section E (Table E5); type: in vivo, Echinochloa crus-galli; details: application rate 320 g/ha; assessed visually after ca. 3 weeks
# Description: as §3
# [30] = test system: LOLRI; assay: Herbicidal post-emergence action, section E (Table E6); type: in vivo, Lolium rigidum; details: application rate 320 g/ha; assessed visually after ca. 3 weeks
# Description: as §3
# [31] = test system: SETVI; assay: Herbicidal post-emergence action, section E (Table E8); type: in vivo, Setaria viridis; details: application rate 320 g/ha; assessed visually after ca. 3 weeks
# Description: as §3
# [32] = test system: VERPE; assay: Herbicidal post-emergence action, section E (Table E9); type: in vivo, Veronica persica; details: application rate 320 g/ha; assessed visually after ca. 3 weeks
# Description: as §3
# [33] = test system: ZEAMX; assay: Post-emergence effects on crop plants (Table F1); type: in vivo, Zea mays; details: application rate 320 g/ha, crop plant ZEAMX
# Description: as §3
# [34] = test system: TRZAS; assay: Post-emergence effects on crop plants (Table F2); type: in vivo, Triticum aestivum; details: application rate 80 g/ha, crop plant TRZAS
# Description: as §3
# [35] = test system: ORYZA; assay: Post-emergence effects on crop plants (Table F3); type: in vivo, Oryza sativa; details: application rate 80 g/ha, crop plant ORYZA
# Description: as §3
# [36] = test system: GLXMA; assay: Post-emergence effects on crop plants (Table F4); type: in vivo, Glycine max; details: application rate 80 g/ha, crop plant GLXMA
# Description: as §3
# [37] = test system: BRSNW; assay: Post-emergence effects on crop plants (Table F5); type: in vivo, Brassica napus; details: application rate 80 g/ha, crop plant BRSNW
# Description: as §3
# [38] = test system: ORYZA; assay: Pre-emergence effects on crop plants (Table D3); details: crop plant; application rate 80 g/ha; visual grading after ca. 3 weeks
# Description: Seeds of mono- and dicotyledonous weed plants and crop plants were sown, in plastic or organic planting pots, in sandy loam and covered with soil. The compounds according to the invention, formulated in the form of wettable powders (WP) or as emulsifiable concentrates (EC), were applied to the surface of the covering soil as aqueous suspension or emulsion, with the addition of 0.5% of an additive, at an application rate of 600 1 of water/ha (converted).
# Following treatment, the pots were placed in a greenhouse and kept under optimum growth conditions for the test plants.
structure (smiles),measurement,setting,value
O=C1N(Cc2ccccc2F)CCCC12CCCN(Cc1cccc(F)c1F)C2=O (racemic) [I-003],pre-emergence activity against ABUTH,[1],90%
same,pre-emergence activity against ECHCG,[2],100%
same,pre-emergence activity against LOLRI,[3],100%
same,pre-emergence activity against MATIN,[4],90%
same,pre-emergence activity against SETVI,[5],100%
same,pre-emergence activity against STEME,[6],90%
same,pre-emergence activity against POAAN,[7],100%
same,pre-emergence activity against ALOMY,[8],90%
same,pre-emergence activity against KCHSC,[9],90%
same,pre-emergence activity against VERPE,[10],90%
same,post-emergence activity against ABUTH,[11],90%
same,post-emergence activity against ALOMY,[12],90%
same,post-emergence activity against ECHCG,[13],90%
same,post-emergence activity against MATIN,[14],90%
same,post-emergence activity against POAAN,[15],100%
same,post-emergence activity against SETVI,[16],90%
same,post-emergence activity against STEME,[17],100%
same,post-emergence activity against VERPE,[18],90%
same,pre-emergence activity against ALOMY,[19],90%
same,pre-emergence activity against ECHCG,[20],100%
same,pre-emergence activity against LOLRI,[21],90%
same,pre-emergence activity against MATIN,[22],90%
same,pre-emergence activity against SETVI,[23],100%
same,pre-emergence activity against VIOTR,[24],90%
same,pre-emergence activity against ZEAMX,[25],10%
same,pre-emergence activity against GLXMA,[26],10%
same,pre-emergence activity against BRSNW,[27],10%
same,post-emergence activity against ALOMY,[28],90%
same,post-emergence activity against ECHCG,[29],80%
same,post-emergence activity against LOLRI,[30],80%
same,post-emergence activity against SETVI,[31],80%
same,post-emergence activity against VERPE,[32],80%
same,post-emergence activity against ZEAMX,[33],20%
same,post-emergence activity against TRZAS,[34],0%
same,post-emergence activity against ORYZA,[35],20%
same,post-emergence activity against GLXMA,[36],20%
same,post-emergence activity against BRSNW,[37],20%
same,pre-emergence activity against ORYZA,[38],20%
